Assay results taken from patent US9173392B2, “Emulsifiable concentrate” (priority 2010, dated 2015).

What was measured:
[1] = Active component solubility in solvents at 10° C. and 54° C. (visual, HPLC for undissolved samples); details: for Approximate Percent (%) Solubility Determination of Active Components in Solvents (Malathion At 10° C.) / Approximate Percent (%) Solubility Determination of Active Components in Solvents (Malathion At 54° C.): 20 g Malathion in 10 g solvent; for Approximate Percent (%) Solubility Determination of Active Components in Solvents (Malathion At 10° C.) / Approximate Percent (%) Solubility Determination of Active Components in Solvents (Metolachlor At 10° C.): about two weeks at 10° C.; for Approximate Percent (%) Solubility Determination of Active Components in Solvents (Malathion At 10° C.) / Approximate Percent (%) Solubility Determination of Active Components in Solvents (Malathion At 54° C.) / Approximate Percent (%) Solubility Determination of Active Components in Solvents (Metolachlor At 10° C.) / Approximate Percent (%) Solubility Determination of Active Components in Solvents (Metolachlor At 54° C.): totally soluble = no particles visually detectable; for Approximate Percent (%) Solubility Determination of Active Components in Solvents (Malathion At 54° C.) / Approximate Percent (%) Solubility Determination of Active Components in Solvents (Metolachlor At 54° C.): about two weeks at 54° C.; for Approximate Percent (%) Solubility Determination of Active Components in Solvents (Metolachlor At 10° C.) / Approximate Percent (%) Solubility Determination of Active Components in Solvents (Metolachlor At 54° C.): 20 g Metolachlor in 10 g solvent; for miscible in the Solvent 1 up to: active component in Solvent 1 (Examples 1-3)
[2] = Determination of VOC content (percentage weight loss of solvent aliquot on heating); format: physicochemical; details: 10 mg aliquot, furnace 35° C. raised 5° C. per minute, held isothermally at 115° C.
Description: A series of solvents are evaluated to determine a content of volatile organic compounds (VOCs) and suitability for use in this invention. More specifically, the 1,2-cyclohexanedicarboxylic acid diisononyl ester (Hexamoll® Dinch) of this invention is evaluated as Solvent 1. Twelve additional comparative solvents (Comparative Solvents 1-12) are also evaluated.
After addition of the aliquots to the pans, the pans are placed in a furnace at 35° C. The temperature of the furnace is then raised at a rate of 5° C. per minute and held isothermally at 115° C. When mass loss stabilizes at less than 0.5% for 5 minutes, the temperature is then held at 115° C. for an additional 15 minutes. Total run times average about 80 minutes. The results of the VOC content evaluations are set forth in Table 1 below wherein all values represent percentage weight loss of the aliquot and correlate to approximate VOC content.

SMILES | Approximate Percent (%) Solubility Determination of Active Components in Solvents (Malathion At 10° C.) [1] | Approximate Percent (%) Solubility Determination of Active Components in Solvents (Malathion At 54° C.) [1] | Approximate Percent (%) Solubility Determination of Active Components in Solvents (Metolachlor At 10° C.) [1] | Approximate Percent (%) Solubility Determination of Active Components in Solvents (Metolachlor At 54° C.) [1] | % Total Weight Loss = VOC Content [2] [%] | miscible in the Solvent 1 up to [1]
CC(O)CO (stereo not shown) [Comparative Solvent 7, propylene glycol] | Totally Soluble | Totally Soluble | Totally Soluble | Totally Soluble | 100 | 
CC1COC(=O)O1 (stereo not shown) [Comparative Solvent 5, propylene carbonate] | Totally Soluble | Totally Soluble | Totally Soluble | Totally Soluble | 100 | 
CCOC(=O)CC(SP(=S)(OC)OC)C(=O)OCC (stereo not shown) [Malathion] |  |  |  |  |  | approximately 66 weight percent
CCc1cccc(C)c1N(C(=O)CCl)C(C)COC (stereo not shown) [Metolachlor] |  |  |  |  |  | approximately 66 weight percent
COC(=O)CCCCC(=O)OC [Comparative Solvent 10, dimethyl adipate] | Totally Soluble | Totally Soluble | Totally Soluble | Totally Soluble | 100 | 
CC(C)CCCCCCOC(=O)C1CCCCC1C(=O)OCCCCCCC(C)C (stereo not shown) [Solvent 1, 1,2-cyclohexanedicarboxylic acid diisononyl ester] | Totally Soluble | Totally Soluble | Totally Soluble | Totally Soluble | 0.33 | 
